Test results as given in patent US7087608B2, “Use of PDGF receptor tyrosine kinase inhibitors for the treatment of diabetic nephropathy” (priority 2000, dated 2006).

Tested on: male Wistar rats with anti-Thy-1 nephritis
Assay: Mesangial proliferative glomerulonephritis (anti-Thy-1 nephritis) induced with OX-7 antibody
Format: in vivo, rat
Excerpt: Mesangial proliferative Glomerulonephritis induced in Male Wistar Rats with monoclonal OX-7, anti-rat Thy-1.1 Antibody
Monoclonal OX-7, anti-rat Thy-1.1 antibody is used for the induction of mesangial proliferative glomerulonephritis (D. W. Mason and A. F. Williams, Biochem. J. 187(1), 1980, 1–20), macrophages are detected using ED1, anti-rat CD68 (C. D. Dijkstra et al., Immunology 54(3), 1985, 589–99) myofibroblasts are identified by labelling with 1A4, anti-human a smooth muscle actin (Sigma Immunochemicals, St. Louis, Mo.) and M744, anti-BrdU (Dako, Glostrup, Denmark) is used to identify proliferating cells. A polyclonal goat anti-bovine/anti-human type IV collagen antibody (Southern Biotechnology, Birmingham, Ala.) is used to examine extracellular matrix.
Anti-Thy-1 nephritis is induced in two groups of 8 male Wistar rats (150–170 g) by i.v. injection of 5 mg/kg OX-7 IgG (D. J. Nikolic-Paterson et al., J. Am. Soc. Nephrol. 7(7), 1996, 1006–14). […] A group of 8 normal rats are also injected with BrdU 3 hours before sacrifice.
Twenty-four hour urine collections and blood samples are taken on days-3 (prior to test) and day 6. Urinary protein concentration is measured by the benzethonium chloride method (Iwata, J. et al., Clin. Chem. 25(7), 1979, 1317–9). Serum and urine creatinine levels are measured using the Jaffé rate reaction (Larsen, K., Clin. Chim. Acta 41, 1972, 209–17).
Tissues are fixed in 4% neutral buffered-formalin and embedded in paraffin. Kidney sections (4 μm) are stained with periodic-acid Schiff's reagent (PAS). Quantitation of nuclei is performed by examining 50 hilar glomeruli per animal.
Immunostaining is performed as described by Rumble et al., J. Clin. Invest. 99, 1997, 1016–1027. Double immunohistochemical staining is performed in formalin fixed tissue sections using a microwave-based technique to prevent antibody cross-reactivity (G. H. Tesch, et al, Am. J. Pathol. 151(1), 1997, 141–50).
Sections stained with either BrdU or ED1 antibody are scored for ED1+ or BrdU+. Counting is undertaken using a graticule to measure glomerular tuft area and confined to the glomerular tuft thereby omitting cells within the capillary lumen. Fifty glomeruli are scored for each animal and labelled cells expressed as the mean±SD per mm^2. In addition, the number of cells in double-labelled sections are also scored as ED1+BrdU+, ED1+BrdU− and ED1−BrdU+.
The magnitude of immunostaining for type IV collagen is quantified using computer assisted image analysis as previously described (H. A. Lehr et al., J. Histochem. Cytochem. 45(11), 1997, 1559–65).

[1] = 50 mg/kg daily i.p., day 6, 50 hilar glomeruli per animal, p<0.05

For `Cc1ccc(NC(=O)c2ccc(CN3CCN(C)CC3)cc2)cc1Nc1nccc(-c2cccnc2)n1` [CGP 57148B, N-{5-[4-(4-methyl-piperazino-methyl)-benzoylamido]-2-methylphenyl}-4-(3-pyridyl)-2-pyrimidine-amine], the Proteinuria (50 mg/kg daily i.p. from day 1 after OX-7 IgG, day 6, 24-hour urine) was 16.4±7.0 mg/24 hours, the “Mesangial cell (BrdU+ED1−) proliferation per glomerular cross section (FIG. 2)” value (50 mg/kg daily i.p., day 6, 50 hilar glomeruli per animal, p<0.001) was “significantly reduced” and the “Glomerular hypercellularity, nuclei per glomerular cross section (FIG. 1)” value [1] was “significantly reduced”. For the same molecule, the “Number of activated mesangial cells (a-smooth muscle actin positive) (FIG. 3)” value [1] was “significantly reduced”, the “Glomerular matrix accumulation of immunostainable type IV collagen (FIG. 4)” value (50 mg/kg daily i.p., day 6, image analysis, p<0.05 versus untreated rats) was “significantly reduced” and the “Mesangial hypercellularity and increased mesangial matrix in PAS-stained kidney sections” value (50 mg/kg daily i.p., killed on day 6) was “not observed”.
